Measured values from patent US20260028365A1 (BIOGEN MA INC., priority 2022, published 2026).
pIC50: −log10 of the molar value.

Legend:
JAK1 = JAK1 (Homo sapiens (Human), UniProt P23458); assay: pSTAT3 Cell Assay (MSD, TF1 cells); type: cell-based; settings: MSD
Protocol: The inhibitory potency of compounds of the disclosure against the JAK1 kinase activity on STAT3 was evaluated using an MSD-platform plate-based assay format. TF1 cells natively expressing STAT3 and JAK1 were serum-starved to reduce background phosphorylation levels, then cells were treated with compounds of the disclosure for 1 hour with a 10-point four-fold dilution series starting at 10 μM. Cells were then stimulated with 30 ng/mL interleukin 6 (IL-6) for 15 minutes. Cells were lysed and pSTAT3 levels were quantitated using an MSD plate-based assay with anti-STAT3 antibodies. The data were normalized and the percent activity versus log concentration of compound was fitted with a 4-parameter logistic model to generate IC50 curves.

Tyk2 = Tyk2 (Homo sapiens (Human), UniProt P29597); assay: pSTAT4 Cell Assay (MSD, NK92 cells); type: cell-based; settings: MSD
Sequence of Tyk2 (P29597 whole entry, the tested form may be a part): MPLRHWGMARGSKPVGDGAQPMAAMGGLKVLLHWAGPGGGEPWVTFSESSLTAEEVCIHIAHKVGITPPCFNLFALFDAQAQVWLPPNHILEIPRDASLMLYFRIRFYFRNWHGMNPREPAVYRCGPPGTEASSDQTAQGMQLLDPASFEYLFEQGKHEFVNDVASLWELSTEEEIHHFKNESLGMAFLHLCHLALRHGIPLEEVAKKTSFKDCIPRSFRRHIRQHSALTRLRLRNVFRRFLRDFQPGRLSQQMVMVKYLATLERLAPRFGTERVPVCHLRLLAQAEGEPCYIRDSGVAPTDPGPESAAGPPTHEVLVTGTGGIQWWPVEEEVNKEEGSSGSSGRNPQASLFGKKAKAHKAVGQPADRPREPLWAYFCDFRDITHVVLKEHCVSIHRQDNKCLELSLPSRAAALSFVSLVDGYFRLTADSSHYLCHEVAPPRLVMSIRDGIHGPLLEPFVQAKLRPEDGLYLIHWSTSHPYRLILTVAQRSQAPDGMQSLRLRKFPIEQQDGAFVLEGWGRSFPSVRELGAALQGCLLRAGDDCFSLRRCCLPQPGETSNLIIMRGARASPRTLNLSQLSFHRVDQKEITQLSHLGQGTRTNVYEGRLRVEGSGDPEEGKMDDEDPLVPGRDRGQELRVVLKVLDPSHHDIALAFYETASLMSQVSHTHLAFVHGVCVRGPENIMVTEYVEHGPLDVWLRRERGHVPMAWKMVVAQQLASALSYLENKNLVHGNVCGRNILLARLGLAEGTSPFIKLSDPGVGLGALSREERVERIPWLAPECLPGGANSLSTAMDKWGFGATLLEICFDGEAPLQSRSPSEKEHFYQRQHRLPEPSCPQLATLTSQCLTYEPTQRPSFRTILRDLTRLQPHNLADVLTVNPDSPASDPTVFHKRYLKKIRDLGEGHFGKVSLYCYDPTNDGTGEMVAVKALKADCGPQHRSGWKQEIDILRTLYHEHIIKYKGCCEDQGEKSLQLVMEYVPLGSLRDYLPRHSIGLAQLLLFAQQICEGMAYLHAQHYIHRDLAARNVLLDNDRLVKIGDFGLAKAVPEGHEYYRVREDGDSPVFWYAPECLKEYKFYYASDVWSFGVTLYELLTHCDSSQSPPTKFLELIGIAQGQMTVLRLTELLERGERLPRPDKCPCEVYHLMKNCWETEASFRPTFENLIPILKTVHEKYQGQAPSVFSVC

JH2 domain of human Tyk2 = JH2 domain of human Tyk2 (Homo sapiens (Human), UniProt P29597); assay: JH2 Biochemical Assay (TR-FRET probe displacement); type: binding
Sequence of JH2 domain of human Tyk2 (P29597 575-876): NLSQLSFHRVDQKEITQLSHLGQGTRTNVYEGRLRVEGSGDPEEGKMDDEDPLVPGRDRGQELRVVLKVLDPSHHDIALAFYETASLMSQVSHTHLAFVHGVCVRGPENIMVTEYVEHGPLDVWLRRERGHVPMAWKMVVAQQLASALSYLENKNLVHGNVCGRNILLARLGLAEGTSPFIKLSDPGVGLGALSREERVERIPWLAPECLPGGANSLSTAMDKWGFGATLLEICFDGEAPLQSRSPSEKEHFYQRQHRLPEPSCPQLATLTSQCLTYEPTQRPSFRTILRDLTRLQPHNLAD

JAK2 = JAK2 (Homo sapiens (Human), UniProt O60674); assay: pSTAT5 Cell Assay (MSD, TF1 cells); type: cell-based; settings: MSD
Sequence of JAK2 (O60674 whole entry): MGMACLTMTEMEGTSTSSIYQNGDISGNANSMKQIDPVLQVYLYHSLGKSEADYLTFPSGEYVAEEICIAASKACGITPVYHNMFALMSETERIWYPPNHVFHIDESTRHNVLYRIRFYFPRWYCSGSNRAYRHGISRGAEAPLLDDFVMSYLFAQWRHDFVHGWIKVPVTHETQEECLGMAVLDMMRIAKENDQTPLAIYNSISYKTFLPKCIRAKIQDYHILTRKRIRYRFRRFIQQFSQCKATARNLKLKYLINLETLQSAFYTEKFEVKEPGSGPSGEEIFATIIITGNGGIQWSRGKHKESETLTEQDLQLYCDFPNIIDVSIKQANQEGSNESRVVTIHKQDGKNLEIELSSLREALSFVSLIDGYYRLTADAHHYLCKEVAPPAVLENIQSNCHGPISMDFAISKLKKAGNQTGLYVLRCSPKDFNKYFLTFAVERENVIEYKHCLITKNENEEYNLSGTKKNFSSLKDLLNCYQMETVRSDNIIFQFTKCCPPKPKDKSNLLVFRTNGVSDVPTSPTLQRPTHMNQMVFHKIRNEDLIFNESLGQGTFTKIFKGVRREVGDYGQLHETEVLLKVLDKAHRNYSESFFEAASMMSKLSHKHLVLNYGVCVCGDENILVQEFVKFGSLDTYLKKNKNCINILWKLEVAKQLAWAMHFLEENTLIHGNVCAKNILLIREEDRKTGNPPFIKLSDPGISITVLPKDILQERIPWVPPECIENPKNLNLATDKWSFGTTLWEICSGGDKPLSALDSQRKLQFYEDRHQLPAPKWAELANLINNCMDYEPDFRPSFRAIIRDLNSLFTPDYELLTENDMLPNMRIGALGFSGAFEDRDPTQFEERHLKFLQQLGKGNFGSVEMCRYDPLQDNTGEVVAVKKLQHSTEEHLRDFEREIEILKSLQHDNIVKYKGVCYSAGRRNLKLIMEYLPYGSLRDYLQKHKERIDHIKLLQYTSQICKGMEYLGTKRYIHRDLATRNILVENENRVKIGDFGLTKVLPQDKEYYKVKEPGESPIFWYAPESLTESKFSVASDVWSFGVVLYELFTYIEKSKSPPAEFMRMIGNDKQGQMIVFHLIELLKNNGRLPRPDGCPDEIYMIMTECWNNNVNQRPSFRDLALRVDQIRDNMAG
Protocol: Compounds of the disclosure were assessed for their ability to inhibit the JAK2 kinase activity on STAT5 utilizing an MSD-platform plate-based assay format. TF1 cells natively expressing STAT5 and JAK2 were serum-starved to reduce background phosphorylation levels, then cells were treated with compounds of disclosure for 1 hour with a 10-point four-fold dilution series starting at 10 μM. Cells were then stimulated with 30 ng/mL IL-3 for 15 minutes. Cells were then lysed and pSTAT5 levels were quantitated using an MSD plate-based assay with anti-STAT5 antibodies. The data were normalized and the percent activity versus log concentration of compound was fitted with a 4-parameter logistic model to generate a curve and an IC50 value.

[1] = JH2 domain of human Tyk2, TR-FRET probe displacement
[2] = TR-FRET probe displacement, JH2 domain of human Tyk2

Sequence of JAK1 (P23458 whole entry): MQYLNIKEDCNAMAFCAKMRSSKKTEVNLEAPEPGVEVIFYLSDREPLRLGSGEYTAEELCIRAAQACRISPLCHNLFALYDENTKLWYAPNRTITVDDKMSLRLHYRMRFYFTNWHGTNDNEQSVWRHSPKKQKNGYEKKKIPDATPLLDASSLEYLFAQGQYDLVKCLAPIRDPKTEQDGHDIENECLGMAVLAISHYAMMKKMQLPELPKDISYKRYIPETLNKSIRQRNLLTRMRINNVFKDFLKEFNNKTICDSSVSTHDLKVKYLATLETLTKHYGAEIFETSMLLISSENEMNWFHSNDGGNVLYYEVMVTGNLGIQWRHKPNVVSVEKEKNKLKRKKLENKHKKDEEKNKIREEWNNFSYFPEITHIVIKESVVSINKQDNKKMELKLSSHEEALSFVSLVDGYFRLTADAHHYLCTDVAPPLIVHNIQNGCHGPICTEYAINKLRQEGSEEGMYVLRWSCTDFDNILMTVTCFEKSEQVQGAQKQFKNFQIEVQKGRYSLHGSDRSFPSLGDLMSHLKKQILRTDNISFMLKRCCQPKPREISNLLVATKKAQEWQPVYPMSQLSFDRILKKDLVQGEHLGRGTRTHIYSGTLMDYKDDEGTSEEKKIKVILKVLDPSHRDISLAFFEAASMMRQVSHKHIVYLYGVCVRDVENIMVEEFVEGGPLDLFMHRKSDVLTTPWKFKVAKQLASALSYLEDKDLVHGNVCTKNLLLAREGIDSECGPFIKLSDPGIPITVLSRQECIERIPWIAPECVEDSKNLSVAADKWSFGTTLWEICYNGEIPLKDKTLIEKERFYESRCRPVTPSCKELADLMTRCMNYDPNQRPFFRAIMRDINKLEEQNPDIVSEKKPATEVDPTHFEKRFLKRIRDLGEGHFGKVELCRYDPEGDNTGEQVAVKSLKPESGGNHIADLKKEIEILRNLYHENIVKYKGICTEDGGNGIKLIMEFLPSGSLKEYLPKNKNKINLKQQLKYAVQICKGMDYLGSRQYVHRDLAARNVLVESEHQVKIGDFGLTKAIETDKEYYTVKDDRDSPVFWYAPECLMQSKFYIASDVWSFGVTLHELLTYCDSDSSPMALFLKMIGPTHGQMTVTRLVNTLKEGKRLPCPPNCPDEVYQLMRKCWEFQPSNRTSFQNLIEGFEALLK

SMILES | pIC50 (JAK1; IL-6 stimulated) | pIC50 (Tyk2) | pIC50 (JH2 domain of human Tyk2; [1]) | pIC50 (JAK2; IL-3 stimulated) | pIC50 (JAK1; IL-6 stimulation) | pIC50 (JH2 domain of human Tyk2; [2]) | pIC50 (JAK2; IL-3 stimulation)
CC(=O)Nc1cc(Nc2cc(C)nc(C(C)(F)F)n2)c(OC[C@H]2C[C@H]2F)cn1 (racemic) [Example 425, Cis-rac-N-(4-((2-(1,1-difluoroethyl)-6-methylpyrimidin-4-yl)amino)-5-((2-fluorocyclopropyl)methoxy)pyridin-2-yl)acetamide] | ≤ 6.00 | ≥ 8.00 | ≥ 8.00 | ≤ 6.00 |  |  | 
CC(=O)Nc1cc(Nc2cc(C)nc(C(C)(F)F)n2)c(OC[C@H]2C[C@@H]2F)cn1 (racemic) [Example 426, Trans-rac-N-(4-((2-(1,1-difluoroethyl)-6-methylpyrimidin-4-yl)amino)-5-((2-fluorocyclopropyl)methoxy)pyridin-2-yl)acetamide] | ≤ 6.00 | ≥ 8.00 | ≥ 8.00 | ≤ 6.00 |  |  | 
CC(=O)Nc1cc(Nc2cc(C)nc(C(C)(F)F)n2)c(OC[C@H]2CCCO2)cn1 (single isomer, unassigned) [Example 294, (R)-N-(4-((2-(1,1-difluoroethyl)-6-methylpyrimidin-4-yl)amino)-5-((tetrahydrofuran-2-yl)methoxy)pyridin-2-yl)acetamide or (S)-N-(4-((2-(1,1-difluoroethyl)-6-methylpyrimidin-4-yl)amino)-5-((tetrahydrofuran-2-yl)methoxy)pyridin-2-yl)acetamide] |  | ≥ 8.00 |  |  | ≤ 6.00 | ≥ 8.00 | ≤ 6.00
CC(=O)Nc1cc(Nc2cc(OC3CC3)nc(C(C)(F)F)n2)c(OC[C@@H]2COCCO2)cn1 (single isomer, unassigned) [Example 453, (S)-N-(5-((1,4-dioxan-2-yl)methoxy)-4-((6-cyclopropoxy-2-(1,1-difluoroethyl)pyrimidin-4-yl)amino)pyridin-2-yl)acetamide or (R)-N-(5-((1,4-dioxan-2-yl)methoxy)-4-((6-cyclopropoxy-2-(1,1-difluoroethyl)pyrimidin-4-yl)amino)pyridin-2-yl)acetamide] | ≤ 6.00 | ≥ 8.00 | ≥ 8.00 | ≤ 6.00 |  |  | 
CC(=O)Nc1cc(Nc2cc(OC3CC3)nc(C(C)(F)F)n2)c(OC[C@H]2COCCO2)cn1 (single isomer, unassigned) [Example 454, (R)-N-(5-((1,4-dioxan-2-yl)methoxy)-4-((6-cyclopropoxy-2-(1,1-difluoroethyl)pyrimidin-4-yl)amino)pyridin-2-yl)acetamide or (S)-N-(5-((1,4-dioxan-2-yl)methoxy)-4-((6-cyclopropoxy-2-(1,1-difluoroethyl)pyrimidin-4-yl)amino)pyridin-2-yl)acetamide] | ≤ 6.00 | ≥ 8.00 | ≥ 8.00 | ≤ 6.00 |  |  | 
CCOc1cnc(NC(C)=O)cc1Nc1cccc(C(C)(F)F)n1 [Example 1, N-(4-((6-(1,1-difluoroethyl)pyridin-2-yl)amino)-5-ethoxypyridin-2-yl)acetamide] |  | ≥ 8.00 |  |  | ≤ 6.00 | ≥ 8.00 | ≤ 6.00
CCOc1cnc(NC(C)=O)cc1Nc1nccc(C(C)(F)F)n1 [Example 3, N-(4-((4-(1,1-difluoroethyl)pyrimidin-2-yl)amino)-5-ethoxypyridin-2-yl)acetamide] |  | 7.00 to 8.00 |  |  | ≤ 6.00 | ≥ 8.00 | ≤ 6.00
CCOc1cnc(NC(C)=O)cc1Nc1ccnc(C(C)(F)F)n1 [Example 4, N-(4-((2-(1,1-difluoroethyl)pyrimidin-4-yl)amino)-5-ethoxypyridin-2-yl)acetamide] |  | 7.00 to 8.00 |  |  | ≤ 6.00 | ≥ 8.00 | ≤ 6.00
CCOc1cnc(NC(C)=O)cc1Nc1cc(OC)nc(C(C)(F)F)n1 [Example 5, N-(4-((2-(1,1-difluoroethyl)-6-methoxypyrimidin-4-yl)amino)-5-ethoxypyridin-2-yl)acetamide] |  | 7.00 to 8.00 |  |  | ≤ 6.00 | ≥ 8.00 | ≤ 6.00
CCOc1cnc(NC(C)=O)cc1Nc1cc(C)nc(C(C)(F)F)n1 [Example 10, N-(4-((2-(1,1-difluoroethyl)-6-methylpyrimidin-4-yl)amino)-5-ethoxypyridin-2-yl)acetamide] |  | 7.00 to 8.00 |  |  | ≤ 6.00 | ≥ 8.00 | ≤ 6.00
CC(=O)Nc1cc(Nc2cc(C)nc(C(C)(F)F)n2)c(OCC2CC2)cn1 [Example 11, N-(5-(cyclopropylmethoxy)-4-((2-(1,1-difluoroethyl)-6-methylpyrimidin-4-yl)amino)pyridin-2-yl)acetamide] |  | 7.00 to 8.00 |  |  | ≤ 6.00 | ≥ 8.00 | ≤ 6.00
CCOc1cnc(NC(C)=O)cc1Nc1cc(CC)nc(C(C)(F)F)n1 [Example 12, N-(4-((2-(1,1-difluoroethyl)-6-ethylpyrimidin-4-yl)amino)-5-ethoxypyridin-2-yl)acetamide] |  | 7.00 to 8.00 |  |  | ≤ 6.00 | ≥ 8.00 | ≤ 6.00
CCOc1cnc(NC(C)=O)cc1Nc1cc(C2CC2)nc(C(C)(F)F)n1 [Example 13, N-(4-((6-cyclopropyl-2-(1,1-difluoroethyl)pyrimidin-4-yl)amino)-5-ethoxypyridin-2-yl)acetamide] |  | 7.00 to 8.00 |  |  | ≤ 6.00 | ≥ 8.00 | ≤ 6.00
CCOc1cnc(NC(C)=O)cc1Nc1cc(O[C@H]2C[C@H](OC)C2)cc(C(C)(F)F)n1 [Example 14, N-(4-((6-(1,1-difluoroethyl)-4-((1r,3r)-3-methoxycyclobutoxy)pyridin-2-yl)amino)-5-ethoxypyridin-2-yl)acetamide] |  | 7.00 to 8.00 |  |  | ≤ 6.00 | ≥ 8.00 | ≤ 6.00
CCOc1cnc(NC(C)=O)cc1Nc1cc(O[C@H]2C[C@H](OC)C2)nc(C(C)(F)F)n1 [Example 16, N-(4-((2-(1,1-difluoroethyl)-6-((1r,3r)-3-methoxycyclobutoxy)pyrimidin-4-yl)amino)-5-ethoxypyridin-2-yl)acetamide] |  | ≥ 8.00 |  |  | ≤ 6.00 | ≥ 8.00 | ≤ 6.00
COc1cnc(NC(C)=O)cc1Nc1cc(C2CC2)nc(C(C)(F)F)n1 [Example 17, N-(4-((6-cyclopropyl-2-(1,1-difluoroethyl)pyrimidin-4-yl)amino)-5-methoxypyridin-2-yl)acetamide] |  | 7.00 to 8.00 |  |  | ≤ 6.00 | ≥ 8.00 | ≤ 6.00
COc1cnc(NC(C)=O)cc1Nc1cc(O[C@H]2C[C@H](OC)C2)nc(C(C)(F)F)n1 [Example 19, N-(4-((2-(1,1-difluoroethyl)-6-((1r,3r)-3-methoxycyclobutoxy)pyrimidin-4-yl)amino)-5-methoxypyridin-2-yl)acetamide] |  | 7.00 to 8.00 |  |  | ≤ 6.00 | ≥ 8.00 | ≤ 6.00
CCc1cc(Nc2cc(NC(C)=O)ncc2OCCOC)nc(C(C)(F)F)n1 [Example 20, N-(4-((2-(1,1-difluoroethyl)-6-ethylpyrimidin-4-yl)amino)-5-(2-methoxyethoxy)pyridin-2-yl)acetamide] |  | ≥ 8.00 |  |  | ≤ 6.00 | ≥ 8.00 | ≤ 6.00
COCCOc1cnc(NC(C)=O)cc1Nc1cc(OC)nc(C(C)(F)F)n1 [Example 21, N-(4-((2-(1,1-difluoroethyl)-6-methoxypyrimidin-4-yl)amino)-5-(2-methoxyethoxy)pyridin-2-yl)acetamide] |  | 7.00 to 8.00 |  |  | ≤ 6.00 | ≥ 8.00 | ≤ 6.00
COCCOc1cnc(NC(C)=O)cc1Nc1cc(C)nc(C(C)(F)F)n1 [Example 22, N-(4-((2-(1,1-difluoroethyl)-6-methylpyrimidin-4-yl)amino)-5-(2-methoxyethoxy)pyridin-2-yl)acetamide] |  | ≥ 8.00 |  |  | ≤ 6.00 | ≥ 8.00 | ≤ 6.00
CC(=O)Nc1cc(Nc2cc(C)nc(C(C)(F)F)n2)c(C2CC2)cn1 [Example 29, N-(5-cyclopropyl-4-((2-(1,1-difluoroethyl)-6-methylpyrimidin-4-yl)amino)pyridin-2-yl)acetamide] |  | 6.00 to 7.00 |  |  | ≤ 6.00 | ≥ 8.00 | ≤ 6.00
Cc1cc(Nc2cc(NC(N)=O)ncc2-c2ccc(F)cn2)nc(C(C)(F)F)n1 [Example 291, 1-(4′-((2-(1,1-difluoroethyl)-6-methylpyrimidin-4-yl)amino)-5-fluoro-[2,3′-bipyridin]-6′-yl)urea] |  | ≥ 8.00 |  |  | 6.00 to 7.00 |  | ≤ 6.00
Cc1cc(Nc2cc(NC(N)=O)ncc2-c2ccc(C#N)cn2)nc(C(C)(F)F)n1 [Example 292, 1-(5-cyano-4′-((2-(1,1-difluoroethyl)-6-methylpyrimidin-4-yl)amino)-[2,3′-bipyridin]-6′-yl)urea] |  | ≥ 8.00 |  |  | ≤ 6.00 |  | ≤ 6.00
